From patent US7482008B1, “Human T cell reactive feline protein (TRFP) isolated from house dust and uses therefor” (Merck Patent GmbH, priority 1989, dated 2009)

What was measured:
[1] = system: PBMC from cat-allergic patients; assay: IL-2, IFN-gamma and IL-4 measurements by PCR in primary 36 hour PBMC culture; type: cell-based, human; settings: Patient 409 primary 36 hour culture; for STIMULATION INDEX IFN-γ / STIMULATION INDEX IL-4: PCR, vs medium control
Experimental: Peripheral blood mononuclear cells (PBMC) were purified from cat-allergic patients as described in Example 5. Five×10^6 PBMC were cultured at 2×10^6/ml for 36 hours in the presence of medium only, 20 μg purified TRFP/ml or 50 μg peptide/ml. The cells were then washed two times with phosphate buffered saline (PBS, pH 7.2) and lysed with 2 ml […] guanidinium isothiocyanate, 0.5% Sarkosyl, 5 mM sodium citrate, 0.1 M 2-mercaptoethanol, pH 7.0. The lysate was then forced through a 26 gauge needle to shear genomic DNA, and was layered onto a 2 ml cushion of 5.7 M CsCl, 0.01 M EDTA, pH 7.5 in diethylpyrocarbonate (DEPC)-treated water. The lysate was centrifuged at 35,000 RPM in a Beckman SW41 rotor for 18 hours at 20° C. The RNA pellet was resuspended in 0.4 ml TE (10 mM Tris, 1 mM EDTA), pH 7.5, 0.1% SDS, and then extracted three times with 0.5 ml phenol/0.2 ml chloroform. The RNA was then precipitated on dry ice with 2.5 volumes ice-cold ethanol, 1/10 volume 3 M sodium acetate, pH 5.2 in DEPC-treated water, rinsed once with 70% ethanol in DEPC-treated water, and dried. The RNA pellet was resuspended in 2 μl TE., pH 7.5 in DEPC-treated water.
Total cellular RNA was converted to cDNA using the Superscript kit (BRL, Bethesda, Md.). Two μl of RNA were added to one μl oligo (dT)12-18 (500 μg/ml) and 9 μl water. The sample was heated to 70° C. for 10 minutes and ice quenched. Four μl 5× buffer were added to the sample along with 2 μl 0.1 M DTT and 1 μl dNTP mix (10 mM each, dATP, dCTP, dGTP, dTTP). One μl reverse transcriptase (200U) was added and the reaction was carried out for one hour at 42° C. The reaction was terminated by incubation of the sample at 90° C. for five minutes and stored at −80° C.
Ten-fold serial dilutions of T cell cDNA in 10 mM TRIS, pH 7.5 were amplified using the standard kit and protocol recommended by Perkin Elmer-Cetus (Redwood City, Calif.). Each sample received 26.65 μl water, 5 μl ×PCR buffer, 8 μl of dNTP mix (1.25 mM each of dATP, dCTP, dGTP and dTTP), 0.1 μl alpha 32P-dCTP (3000 Ci/mmol), 0.25 μl AmpliTaq, 5 μl cDNA and 5 μl cytokine-specific 5′ and 3′ primers (20 micromolar). The primers used for most cytokines and the beta-actin control were purchased from Clontech (Redwood City, Calif.). The human IL-4 primers were purchased from Research Genetics (Huntsville, Ala.) and had the following sequences: 5′ hIL-4 primer (SEQ. ID. NO: 58):
The PCR products were extracted once with 25 μl chloroform and 25 μl of each sample were then electrophoresed on an 8% polyacrylamide gel at 250 V. The gel was dried and exposed to pre-flashed x-ray film. Several exposures of each gel were then scanned using a Shimadzu flying spot laser densitometer. Values on the linear portion of the titrations were then compared to the medium control values to obtain a stimulation index for each sample. Primers for beta-actin were included as a control for general cDNA levels in each sample. Where the medium control values are not detectable, the lowest measurable response was set at 1.00. In other experiments, levels of cytokine cDNA can be compared directly with previously amplified cytokine specific cDNAs as standards. Thus, absolute levels of particular cytokine cDNAs can be compared from one sample to another and from one experiment to another. In this experiment, IL-2, IL-4 and IFN-gamma levels were measured. As shown, in this particular cat-allergic patient, peptides such as Fel 18 generate more IL-4 than certain other TRFP-derived peptides (Fel 14 and Fel 17). This analysis will be expanded to studies of other cytokines involved in the generation of allergic responses, such as IL-5, IL-8, IL-9, TGF-beta. Samples of cDNA from each treatment can also be saved for later analysis once additional cytokines are identified and sequenced. Peptides generating a spectrum of cytokines favorable for the generation of allergic responses can be avoided for therapeutic use in the treatment of cat allergy. […]

human IgE = assay: ELISA of human IgE binding, plasma from patient #669; settings: patient #669 plasma
Experimental: Corning assay plates (#25882-96) were coated with 10 μg/ml of each coating antigen (i.e., TRFP, chain 1 (recombinant chain 1 of TRFP), chain 2 (recombinant chain 2 of TRFP), peptide XYZ, peptide XZY, peptide YXZ, peptide YZX, peptide ZXY and peptide ZYX) listed in FIG. 34 at 50 μl/well and incubated overnight at 4° C. The coating antigens were removed and the wells were blocked with 0.5% gelatin in PBS, 200 μl/well for 2 hours at room temperature. Plasma from patient #669 was serially diluted with PBS-Tween 20 (PBS with 0.05% nonionic detergent Tween-20 Sigma, St. Louis Mo.) and 100 μl/well was added and incubated overnight at 4° C. (plasma dilutions are tested in duplicate). The second antibody (biotinylated goat anti-Human IgE, 1:1000, Kirkegaard & Perry Laboratories Inc. Gaithersburg, Md.), was added at 100 μl/well for one hour at room temperature. This solution was removed and streptavidin-HRPO, 1:10,000 (Southern Biotechnology Associates, Inc., Birmingham, Ala.) was then added at 100 μl/well for one hour at room temperature (all wells were washed three times with PBS-Tween between each incubation step). TMB Membrane Peroxidase Substrate system (Kirkegaard & Perry Laboratories) was freshly mixed, and added at 100 μl/well. The color was allowed to develop for 2-5 minutes. The reaction was stopped by the addition of 100 μl/well of 1M phosphoric acid. Plates were read on a Microplate EL 310 Autoreader (Biotek Instruments, Winooski, Vt.) with a 450 nm filter. The absorbance levels of duplicate wells were averaged.

Substance	RATIO IFN/IL-4 [1]	STIMULATION INDEX IFN-γ [1]	STIMULATION INDEX IL-4 [1]	IgE binding, ELISA (human IgE)
NARILKNCVDAKMTEEDKE [Fel 4, TRFP chain 1 amino acids 37-55]	2.6	25.8	10.0	–
TRFP: human T cell reactive feline protein affinity purified from house dust; two covalently linked chains	0.9	2.1	3.8	high level of IgE binding
recombinant chain 1: recombinant TRFP chain 1 expressed in E. coli	–	–	–	somewhat lower binding
